{"source": "patent US20170226133A1", "about": "“Gold (I)-Phosphine Compounds as Anti-Bacterial Agents” (Auspherix Limited, priority 2014, published 2017)", "key": {"[1]": {"test_system": "human hepatocyte cell line (HepG2)", "assay": "HepG2 cell inhibition assay (CCK-8 cell viability)", "assay_type": "cell-based", "details": "50% growth inhibition, 24 hours", "method": "Cell counting kit-8 (Sigma, CCK-8) assays were performed to assess the effect of compounds on cell viability. The assay is based on the reduction of a water-soluble tetrazolium salt (WST-8) by cellular dehydrogenases to a formazan dye which can be detected spectroscopically. 96-well plates were seeded with the human hepatocyte cell line (HepG2) at approximately 8×10^3 cells per well in Minimum Essential Medium Eagle (EMEM) with Earle's salts and sodium bicarbonate supplemented with 10% heat-inactivated foetal bovine serum 2 mM glutamine and 1% non-essential amino acids (NEAA). The following day serial dilutions of compounds (dissolved and diluted in DMSO) were added to the cells in duplicates. Control included an ‘untreated’ control where cells were grown in the presence of 1% DMSO and a medium only control (plus 1% DMSO). After 24 hours CCK-8 reagent (10 μl) was added to each well and cell viability was assessed by measuring the absorbance at a wavelength of 450 nm after 2-3 h hours. Only living cells can reduce the tetrazolium salts into coloured formazan products. Results were expressed as 50% growth inhibition (TD50) values compared to ‘untreated’ control. The therapeutic index was calculated as the ratio of the dose that produces growth inhibition in 50% of HepG2 cells divided by the dose where 50% of S. aureus or E. coli growth is inhibited."}, "[2]": {"test_system": "chinese hamster ovary cells (CHO)", "assay": "CHO toxicity assay (CCK-8 cell viability)", "assay_type": "cell-based", "details": "50% growth inhibition, 24 hours", "method": "Cell counting kit-8 (Sigma, CCK-8) assays were performed to assess the effect of compounds on cell viability. The assay is based on the reduction of a water-soluble tetrazolium salt (WST-8) by cellular dehydrogenases to a formazan dye which can be detected spectroscopically. 96-well plates were seeded with chinese hamster ovary cells (CHO) cells at 7×10^3 cells per well in Dulbecco's modified Eagle's medium nutrient mixture F-12 Ham (containing 15 mM HEPES, NaHCO3, pyridoxine and L-glutamine) supplemented with 10% fetal bovine serum (FBS). The following day serial dilutions of compounds (dissolved and diluted in DMSO) were added to the cells in duplicates. Control included an ‘untreated’ control where cells were grown in the presence of 1% DMSO and a medium only control (plus 1% DMSO). After 24 hours CCK-8 reagent (10 μl) was added to each well and cell viability was assessed by measuring the absorbance at a wavelength of 450 nm after 2.5-3 hours. Only living cells can reduce the tetrazolium salts into coloured formazan products. Results were expressed as 50% growth inhibition (TD50) values compared to ‘untreated’ control.\nThe therapeutic index was calculated as the ratio of the dose that produces growth inhibition in 50% of CHO cells divided by the dose where 50% of S. aureus growth is inhibited."}, "[3]": {"test_system": "S. aureus NCTC 8325 biofilm", "assay": "Preformed S. aureus biofilm assay (crystal violet)", "assay_type": "cell-based, Staphylococcus aureus", "details": "S. aureus NCTC 8325, 24 hours preformed biofilm, 24 hours exposure", "method": "The effect of a test compound on the formation of a S. aureus biofilm may be assessed using a biofilm prevention assay as described by Merritt et al. Current Protocols in Microbiology, 2011, 1B.1.1-1B1.18 with slight modifications. Briefly, S. aureus NCTC 8325, MRSA (RPAH18) and MRSA (MW2) are grown overnight in Tryptic soy broth (TSB) and diluted to between 1/50 and 1/100 before 150 μL is added to the wells of a flat bottomed 96-well plate. Three microliters of auranofin at the appropriate dilution in DMSO are added to the wells in duplicate. Controls included a serial dilution of lincomycin in ethanol (to assess plate to plate variation), a positive control with bacteria alone in TSB with 2% DMSO and a negative (no bacteria) control with 150 μL TSB containing 2% DMSO. Plates are sealed with AeraSeal™ and incubated at 37° C. for 24 hours. The plates are then washed three times with PBS, dried at 60° C. for 1 hour and stained with crystal violet for 1 hour. The plates are again washed three times with water, dried and scanned prior to the addition of 33% acetic acid to re-solubilize the crystal violet stain bound to the adherent cells. Absorbance is then measured at 595 nm and expressed as a percentage of the bacteria only control.\nThe effect of a test compound on preformed S. aureus biofilms can also be assessed. Briefly S. aureus NCTC 8325 is plated in 96-well plates as described in above and incubated 37° C. for 24 hours. Biofilms are then washed 3 times with TSB and 150 μL of fresh TSB and 3 μL of auranofin at the appropriate dilution in DMSO was added to the wells in duplicate. Plates are again sealed with AeraSeal™ and reincubated 37° C. for 24 hours. Biofilm is then detected as described above."}, "G. mellonella larvae": {"test_system": "G. mellonella larvae", "assay": "Galleria mellonella model, toxicity of compound alone", "assay_type": "in vivo", "details": "uninfected larvae", "method": "(§1) G. mellonella larvae at 5th or 6th instar stage were purchased from a commercial supplier and used within 3 days. Prior to infection larvae were kept at room temperature. Larvae were infected with bacteria (various Gram positive and negative bacteria, including S. aureus, K. pneumoniae, E. coli and P. aeruginosa) using a sterile Hamilton syringe. Bacteria cultures were grown overnight, washed ×3 in PBS and resuspended in PBS. Larvae were wiped with 70% ethanol and 10 μl of bacteria solution (to cause 80% death within 3-4 days) was injected into the bottom right proleg of the larvae. Larvae injected with 10 μl of PBS were used as negative controls. Larvae were then placed in petri dishes (1 dish per condition) containing filter paper at the bottom of the dish at 37° C. After various time points post infection (1-6 h), larvae were taken from the incubator wiped again with 70% ethanol and injected with 10 μl of various concentrations of compound, dissolved in either 5% dimethyl sulfoxide, 5% ethanol or 5% 1-methyl-2-pyrrolidinone into a proleg on the left hand-side. Control larvae received 10 μl of 5% solvent. Ten larvae were injected for each condition. To assess the toxicity of the compound, larvae were injected with various concentrations of compound alone. Larvae were returned to a 37° C. incubator and checked daily. Larvae were considered dead when no movement occurred when touched with a blunt pair of forceps. […] Numbers of dead larvae were recorded each day.\nSurvival Proportions Following Dosing with 10 μl of Compound 8 Solutions of Varying Strengths"}, "[4]": {"test_system": "S. aureus infection of G. mellonella larvae", "assay": "Galleria mellonella model, efficacy after S. aureus infection", "assay_type": "in vivo", "details": "S. aureus infected larvae", "method": "as §1, with “daily.” for “daily. Larvae were considered dead when no movement occurred when touched with a blunt pair of forceps.”, “day. […]” for “day.”"}}}
{"smiles": "C[P](C)(C)=[Au][S]c1nc2ccccc2[nH]1", "note": "[Compound 1]", "values": [{"measurement": "HepG2 cell TD50", "setting": "[1]", "result": 4, "unit": "µg/mL"}, {"measurement": "CHO cell TD50", "setting": "[2]", "result": 3.2, "unit": "µg/mL"}]}
{"smiles": "COC(=O)[C@H](C[S][Au]=[P](C)(C)C)NC(C)=O", "note": "[Compound 2]", "values": [{"measurement": "HepG2 cell TD50", "setting": "[1]", "result": 11, "unit": "µg/mL"}, {"measurement": "CHO cell TD50", "setting": "[2]", "result": 6.4, "unit": "µg/mL"}, {"measurement": "effect on preformed S. aureus biofilm", "setting": "[3]", "result": "disrupted the biofilm"}]}
{"smiles": "C[P](C)(C)=[Au][S]c1nc2ncccc2o1", "note": "[Compound 3]", "values": [{"measurement": "HepG2 cell TD50", "setting": "[1]", "result": 9, "unit": "µg/mL"}, {"measurement": "CHO cell TD50", "setting": "[2]", "result": 5.0, "unit": "µg/mL"}, {"measurement": "effect on preformed S. aureus biofilm", "setting": "[3]", "result": "disrupted the biofilm"}]}
{"smiles": "CC(=O)N[C@@H](C[S][Au]=[P](C)(C)C)C(N)=O", "note": "[Compound 4]", "values": [{"measurement": "HepG2 cell TD50", "setting": "[1]", "result": 22, "unit": "µg/mL"}, {"measurement": "effect on preformed S. aureus biofilm", "setting": "[3]", "result": "disrupted the biofilm"}]}
{"smiles": "C[P](C)(C)=[Au][S]c1nc2cccnc2[nH]1", "note": "[Compound 7]", "values": [{"measurement": "HepG2 cell TD50", "setting": "[1]", "result": 12.5, "unit": "µg/mL"}, {"measurement": "effect on preformed S. aureus biofilm", "setting": "[3]", "result": "disrupted the biofilm"}]}
{"smiles": "CCOC(=O)[C@H](C[S][Au]=[P](C)(C)C)NC(C)=O", "note": "[Compound 8]", "values": [{"measurement": "HepG2 cell TD50", "setting": "[1]", "result": 9.5, "unit": "µg/mL"}, {"measurement": "Survival proportions", "setting": "G. mellonella larvae; 3.75 mg/kg, Day 1", "result": 100}, {"measurement": "Survival proportions", "setting": "G. mellonella larvae; 3.75 mg/kg, Day 2", "result": 100}, {"measurement": "Survival proportions", "setting": "G. mellonella larvae; 3.75 mg/kg, Day 3", "result": 100}, {"measurement": "Survival proportions", "setting": "G. mellonella larvae; 3.75 mg/kg, Day 4", "result": 100}, {"measurement": "Survival proportions", "setting": "G. mellonella larvae; 7.5 mg/kg, Day 1", "result": 100}, {"measurement": "Survival proportions", "setting": "G. mellonella larvae; 7.5 mg/kg, Day 2", "result": 100}, {"measurement": "Survival proportions", "setting": "G. mellonella larvae; 7.5 mg/kg, Day 3", "result": 100}, {"measurement": "Survival proportions", "setting": "G. mellonella larvae; 7.5 mg/kg, Day 4", "result": 100}, {"measurement": "Survival proportions", "setting": "G. mellonella larvae; 15 mg/kg, Day 1", "result": 100}, {"measurement": "Survival proportions", "setting": "G. mellonella larvae; 15 mg/kg, Day 2", "result": 100}, {"measurement": "Survival proportions", "setting": "G. mellonella larvae; 15 mg/kg, Day 3", "result": 100}, {"measurement": "Survival proportions", "setting": "G. mellonella larvae; 15 mg/kg, Day 4", "result": 100}, {"measurement": "Survival proportions", "setting": "G. mellonella larvae; 30 mg/kg, Day 1", "result": 100}, {"measurement": "Survival proportions", "setting": "G. mellonella larvae; 30 mg/kg, Day 2", "result": 90}, {"measurement": "Survival proportions", "setting": "G. mellonella larvae; 30 mg/kg, Day 3", "result": 90}, {"measurement": "Survival proportions", "setting": "G. mellonella larvae; 30 mg/kg, Day 4", "result": 90}, {"measurement": "Survival proportions", "setting": "G. mellonella larvae; 60 mg/kg, Day 1", "result": 100}, {"measurement": "Survival proportions", "setting": "G. mellonella larvae; 60 mg/kg, Day 2", "result": 80}, {"measurement": "Survival proportions", "setting": "G. mellonella larvae; 60 mg/kg, Day 3", "result": 60}, {"measurement": "Survival proportions", "setting": "G. mellonella larvae; 60 mg/kg, Day 4", "result": 50}, {"measurement": "effect on preformed S. aureus biofilm", "setting": "[3]", "result": "disrupted the biofilm"}, {"measurement": "mean survival rates", "setting": "[4]; 2 mg/kg (p=0.02)", "result": "significantly increased"}, {"measurement": "mean survival rates", "setting": "[4]; 4 mg/kg (p=0.04)", "result": "significantly increased"}]}
{"smiles": "C[P](C)(C)=[Au][S]c1ccccc1", "note": "[Compound 10]", "values": [{"measurement": "HepG2 cell TD50", "setting": "[1]", "result": 2, "unit": "µg/mL"}, {"measurement": "effect on preformed S. aureus biofilm", "setting": "[3]", "result": "disrupted the biofilm"}]}
{"smiles": "C[P](C)(C)=[Au][S]c1ccccn1", "note": "[Compound 11]", "values": [{"measurement": "HepG2 cell TD50", "setting": "[1]", "result": 4.5, "unit": "µg/mL"}, {"measurement": "effect on preformed S. aureus biofilm", "setting": "[3]", "result": "disrupted the biofilm"}]}
{"smiles": "C[P](C)(C)=[Au][S]c1ncccn1", "note": "[Compound 12]", "values": [{"measurement": "HepG2 cell TD50", "setting": "[1]", "result": 4.5, "unit": "µg/mL"}, {"measurement": "effect on preformed S. aureus biofilm", "setting": "[3]", "result": "disrupted the biofilm"}]}
{"smiles": "CN1CCC([S][Au]=[P](C)(C)C)CC1", "note": "[Compound 13]", "values": [{"measurement": "HepG2 cell TD50", "setting": "[1]", "result": 15, "unit": "µg/mL"}]}
{"smiles": "C[P](C)(C)=[Au][S]c1nc2ncccc2s1", "note": "[Compound 14]", "values": [{"measurement": "HepG2 cell TD50", "setting": "[1]", "result": 7, "unit": "µg/mL"}, {"measurement": "effect on preformed S. aureus biofilm", "setting": "[3]", "result": "disrupted the biofilm"}]}
{"smiles": "C[P](C)(C)=[Au][S][C@H]1CC[C@H](O)CC1", "note": "[Compound 15]", "values": [{"measurement": "HepG2 cell TD50", "setting": "[1]", "result": 4.5, "unit": "µg/mL"}, {"measurement": "effect on preformed S. aureus biofilm", "setting": "[3]", "result": "disrupted the biofilm"}]}
{"smiles": "C[P](C)(C)=[Au][S]C1CCOCC1", "note": "[Compound 16]", "values": [{"measurement": "HepG2 cell TD50", "setting": "[1]", "result": 4.5, "unit": "µg/mL"}]}
{"smiles": "CCOC(=O)[C@H](C[Se][Au]=[P](C)(C)C)NC(C)=O", "note": "[Compound 18]", "values": [{"measurement": "HepG2 cell TD50", "setting": "[1]", "result": ">50", "unit": "µg/mL"}]}
{"smiles": "C[P](C)(C)=[Au][S]c1cccnc1", "note": "[Compound 19]", "values": [{"measurement": "HepG2 cell TD50", "setting": "[1]", "result": 3, "unit": "µg/mL"}]}
